pIC50: −log10 of the molar value.

Test [1] addresses T1, Polyunsaturated fatty acid 5-lipoxygenase (Rattus norvegicus) (UniProt P12527).
T1 sequence (whole entry): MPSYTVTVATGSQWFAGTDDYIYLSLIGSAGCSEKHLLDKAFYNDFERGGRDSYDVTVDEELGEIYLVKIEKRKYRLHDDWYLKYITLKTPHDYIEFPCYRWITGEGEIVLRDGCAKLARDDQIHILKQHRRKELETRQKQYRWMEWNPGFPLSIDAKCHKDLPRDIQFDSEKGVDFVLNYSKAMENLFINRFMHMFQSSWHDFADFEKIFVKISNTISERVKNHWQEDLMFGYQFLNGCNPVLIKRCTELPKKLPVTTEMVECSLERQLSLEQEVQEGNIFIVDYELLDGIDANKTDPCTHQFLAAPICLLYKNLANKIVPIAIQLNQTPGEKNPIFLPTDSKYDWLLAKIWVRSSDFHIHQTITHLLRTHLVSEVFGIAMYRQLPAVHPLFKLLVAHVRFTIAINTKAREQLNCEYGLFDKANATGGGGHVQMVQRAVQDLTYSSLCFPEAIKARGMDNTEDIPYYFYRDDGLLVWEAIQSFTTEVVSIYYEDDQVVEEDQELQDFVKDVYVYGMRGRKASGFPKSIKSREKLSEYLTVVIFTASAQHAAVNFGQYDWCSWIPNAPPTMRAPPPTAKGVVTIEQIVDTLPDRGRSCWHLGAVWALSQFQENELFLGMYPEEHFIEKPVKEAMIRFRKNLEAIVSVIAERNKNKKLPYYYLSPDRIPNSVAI
The test is described as follows: The compound was tested for the inhibition of 5-lipoxygenase in intact basophilic rat leukemia cells at 10 uM. The note with it: RBL-1. The format is cell-based.

Test [2] has as its target T2, Cyclooxygenase (Rattus norvegicus) (UniProt P35355+Q63921). The test is described as follows: The compound was tested for the inhibition of Prostaglandin G/H synthase in intact basophilic rat leukemia cells at 10 uM.
Test [3] deals with T3, Polyunsaturated fatty acid 5-lipoxygenase (Rattus norvegicus, UniProt P12527).
T3 sequence (P12527 whole entry): T1 sequence (whole entry)
The test is described as follows: The compound was tested for the inhibition of 5-lipoxygenase in intact basophilic rat leukemia cells. The format is cell-based, RBL-1.

The target in test [4] is T2, Cyclooxygenase (Rattus norvegicus). The test is described as follows: The compound was tested for the inhibition of Prostaglandin G/H synthase in intact basophilic rat leukemia cells at 16 uM.
The target of the next test is T4, Cyclooxygenase (Rattus norvegicus, UniProt P35355+Q63921).
T4 sequence (P35355 whole entry): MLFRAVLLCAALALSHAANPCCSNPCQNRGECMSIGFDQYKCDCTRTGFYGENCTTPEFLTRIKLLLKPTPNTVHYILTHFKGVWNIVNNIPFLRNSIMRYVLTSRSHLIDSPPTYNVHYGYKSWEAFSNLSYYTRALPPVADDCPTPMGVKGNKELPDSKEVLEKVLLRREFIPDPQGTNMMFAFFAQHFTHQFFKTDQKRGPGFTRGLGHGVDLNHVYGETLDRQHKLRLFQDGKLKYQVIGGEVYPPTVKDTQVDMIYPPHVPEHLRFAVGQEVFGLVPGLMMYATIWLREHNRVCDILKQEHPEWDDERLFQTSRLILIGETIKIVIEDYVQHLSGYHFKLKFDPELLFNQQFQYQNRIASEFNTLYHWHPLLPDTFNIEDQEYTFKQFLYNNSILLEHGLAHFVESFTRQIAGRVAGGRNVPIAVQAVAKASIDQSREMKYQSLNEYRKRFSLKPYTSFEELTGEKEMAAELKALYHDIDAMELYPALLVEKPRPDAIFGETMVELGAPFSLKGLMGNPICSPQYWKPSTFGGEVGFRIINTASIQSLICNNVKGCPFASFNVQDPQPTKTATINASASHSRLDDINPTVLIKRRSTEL
T4 sequence (Q63921 whole entry): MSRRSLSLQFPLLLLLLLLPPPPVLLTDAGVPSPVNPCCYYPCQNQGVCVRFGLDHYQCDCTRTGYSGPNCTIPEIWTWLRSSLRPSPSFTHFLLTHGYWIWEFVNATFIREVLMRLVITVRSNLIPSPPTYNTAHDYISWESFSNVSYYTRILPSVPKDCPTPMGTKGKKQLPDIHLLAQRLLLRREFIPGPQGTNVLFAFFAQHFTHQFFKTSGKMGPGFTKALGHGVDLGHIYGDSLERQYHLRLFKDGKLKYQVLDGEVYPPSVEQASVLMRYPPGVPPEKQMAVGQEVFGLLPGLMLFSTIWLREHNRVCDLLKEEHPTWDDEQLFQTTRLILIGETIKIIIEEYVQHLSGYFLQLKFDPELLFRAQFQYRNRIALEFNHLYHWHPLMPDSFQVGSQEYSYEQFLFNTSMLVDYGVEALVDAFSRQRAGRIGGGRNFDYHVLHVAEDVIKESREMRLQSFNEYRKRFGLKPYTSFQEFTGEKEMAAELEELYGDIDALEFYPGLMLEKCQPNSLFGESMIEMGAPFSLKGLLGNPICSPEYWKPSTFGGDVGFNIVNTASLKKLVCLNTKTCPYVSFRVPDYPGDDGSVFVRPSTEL
Description: The compound was tested for the inhibition of Prostaglandin G/H synthase in intact basophilic rat leukemia cells.

The target of test [5] is T1, Polyunsaturated fatty acid 5-lipoxygenase (Rattus norvegicus). The test is described as follows: The compound was tested for the inhibition of 5-lipoxygenase in intact basophilic rat leukemia cells at 1.0 uM. The note with it: RBL-1. The test is classed as cell-based.

As to `CC(C)(C)c1cc(Sc2nnc(N)s2)cc(C(C)(C)C)c1O`, the inhibition in test [1] and in test [2] was under 40% in each case.

In test [3], `CC(C)(C)c1cc(Sc2nnc(O)o2)cc(C(C)(C)C)c1O` showed a pIC50 of 5.96. For the same compound, the inhibition in test [4] was under 40%.

In test [3], `CC(C)(C)c1cc(Sc2nnc(NC#N)s2)cc(C(C)(C)C)c1O` had a negative-log IC50 (pIC50) of 5.51. Besides, on Cyclooxygenase, the IC50 was 6 µM.

As to `CC(C)(C)c1cc(Sc2nnc(S)s2)cc(C(C)(C)C)c1O`, the IC50 against Cyclooxygenase came to 3.6 µM.

`CC(C)(C)c1cc(Sc2nnc(S)o2)cc(C(C)(C)C)c1O`: the IC50 at Cyclooxygenase was found to be 1.5 µM.

`CC(C)(C)c1cc(Sc2nnc(O)s2)cc(C(C)(C)C)c1O`: the inhibition was 75% in test [5] and under 40% in test [4].

Usually inhibition stands for the change of the read-out against control, counted positive when it falls. Broadly, the pIC50 is the IC50 on a negative log10 scale, so that one unit is a factor of ten. For orientation: IC50 means the concentration at which inhibition is half-maximal. A high value points to weaker potency in that assay.
